In patent US20100317688A1, “2-HETEROAROYLIMIDAZOL[1,2-a]PYRIDINE DERIVATIVES, PREPARATION AND THERAPEUTIC USE THEREOF” (SANOFI-AVENTIS, priority 2008, published 2010) one finds EC50 data, which are given here for one compound.

Each structure is given as a SMILES string.

The target of this assay is T1, murine Nurr1 receptor (Mus musculus, UniProt Q06219).
T1 construct: a cell line (N2A) endogenously expressing the murine Nurr1 receptor; host or cells: Neuro-2A (N2A) mouse neuroblastoma cells stably transfected with 8NBRE-luciferase
T1 sequence (Q06219 whole entry): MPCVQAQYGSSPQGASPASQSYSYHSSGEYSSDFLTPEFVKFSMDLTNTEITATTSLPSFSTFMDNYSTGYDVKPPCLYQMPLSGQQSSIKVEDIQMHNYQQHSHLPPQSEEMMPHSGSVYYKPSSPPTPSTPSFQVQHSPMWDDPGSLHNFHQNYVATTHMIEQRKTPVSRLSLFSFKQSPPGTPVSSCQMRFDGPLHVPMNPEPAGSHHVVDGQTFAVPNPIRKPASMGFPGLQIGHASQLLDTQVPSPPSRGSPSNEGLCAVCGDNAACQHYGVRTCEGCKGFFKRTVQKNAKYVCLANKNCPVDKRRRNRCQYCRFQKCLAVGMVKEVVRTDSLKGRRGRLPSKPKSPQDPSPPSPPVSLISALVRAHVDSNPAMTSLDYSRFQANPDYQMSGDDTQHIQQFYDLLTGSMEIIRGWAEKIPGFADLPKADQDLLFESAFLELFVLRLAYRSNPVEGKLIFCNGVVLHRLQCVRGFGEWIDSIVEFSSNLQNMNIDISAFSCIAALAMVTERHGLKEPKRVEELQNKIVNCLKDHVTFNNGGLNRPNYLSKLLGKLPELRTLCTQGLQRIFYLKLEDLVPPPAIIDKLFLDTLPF
The assay can be described thus: In vitro activity on N2A cells (8NBRE-luciferase reporter). Type of assay: cell-based. To be noted: N2A cell line endogenously expressing Nurr1, stably transfected with NBRE-luciferase; 24 hours incubation. As to the method:
Evaluation of the In Vitro Activity on N2A Cells
The activity of the compounds according to the invention was evaluated on a cell line (N2A) endogenously expressing the murine Nurr1 receptor and stably transfected with the NOT binding response element (NBRE) coupled to the luciferase reporter gene. The EC50 values are between 0.01 and 1000 nM. The tests were performed according to the procedure described hereinbelow.
The cell line Neuro-2A is obtained from a standard commercial source (ATCC). The clone Neuro-2A was obtained from a spontaneous tumour originating from a strain of albino mice A by R. J Klebe et al. This line Neuro-2A is then stably transfected with 8NBRE-luciferase. The N2A-8NBRE cells are cultured to the point of confluence in 75 cm^2 culture flasks containing DMEM supplemented with 10% foetal calf serum, 4.5 g/L of glucose and 0.4 mg/ml of geneticin. After culturing for one week, the cells are recovered with 0.25% trypsin for 30 seconds and then resuspended in DMEM without phenol red, containing 4.5 g/L of glucose and 10% Hyclone defatted serum, and placed in white, transparent-based 96-well plates. The cells are deposited at a rate of 60 000 per well in 75 μL for 24 hours before adding the products. […] The plates are then measured in a microplate luminescence counter, after having been sealed with an adhesive film. […]
For orientation: A reporter such as luciferase makes a cellular process visible.

Broadly, the EC50 is the concentration at which the effect is half-maximal. A high value points to a less potent agent. As to `O=C(c1cn2cc(Cl)ccc2n1)c1cccs1` [Example 4, (6-Chloroimidazo[1,2-a]pyridin-2-yl)(thien-2-yl)methanone], a half-maximal effect (EC50) was put at 4.7 nM.
